Data reported in PMC7536268, “Increased Antimicrobial Activity of Colistin in Combination With Gamithromycin Against Pasteurella multocida in a Neutropenic Murine Lung Infection Model” (Frontiers in Microbiology, 2020).
Where a name gives a salt, the structure may show the parent alone. Read-outs that look alike come from different tables or passages of the source.

Legend:
[1] = tested on: P. multocida; design: method as in Benoit et al., 2011; settings: P. multocida with erm(E); ref Benoit et al., 2011; cited from earlier work
Text: Bovine respiratory disease (BRD) associated with Mannheimia haemolytica, P. multocida, and Histophilus somni is one of the most economically important diseases that occur in feedlots, and the global losses are estimated at over $3 billion per year ([Watts and Sweeney, 2010]).

[2] = tested on: Pasteurella multocida strains; assay: MIC by broth microdilution (CLSI); type: cell-based; settings: drug alone, against three strains (D18, T5, and WJ11)
Experimental: The susceptibility of the selected P. multocida isolates and the quality control isolate (ATCC 25922) to colistin, gamithromycin, cefquinome, enrofloxacin, tilmicosin, tylosin tartrate, and florfenicol alone was determined using the microdilution method in broth (conducted in triplicate) according to the guiding principles of the CLSI. Based on the action mechanism of each drug, the antimicrobial activity of colistin or cefquinome (drug A) in combination with gamithromycin, enrofloxacin, tilmicosin, tylosin tartrate, or florfenicol (drug B) was determined with the checkerboard method, according to the minimal inhibitory concentration (MIC) of each drug. Briefly, 50 μL of MH II broth was added to each well, and 50 μL of the indicated concentration of colistin or cefquinome was added into the first well of each line. This was followed by multiproportion dilution. Next, 50-μL samples of different concentrations of gamithromycin or the other drugs mentioned above were added to the dilution medium, and a 100 μL inoculum with a cell density of ∼1 × 10^6 colony-forming units (CFU)/mL was added to each well. The plates were then incubated at 37°C for 24 h. According to the EUCAST definitive document E.Def 1.2 ([Mccullough, 2010]), the fractional inhibitory concentration (FIC) index for combined administrations was defined as the sum of the FIC of drug A and the FIC of drug B, where FIC is the MIC of the drug combined with other drugs, divided by the MIC of the drug alone.

[3] = Pasteurella multocida, read-out: MIC

| Structure (SMILES) | MIC [2, 3] | MIC [2] | MIC [1] |
| --- | --- | --- | --- |
| CCCNC[C@]1(O)[C@H](C)O[C@@H](O[C@H]2[C@H](C)[C@@H](O[C@@H]3O[C@H](C)C[C@H](N(C)C)[C@H]3O)[C@](C)(O)C[C@@H](C)CN[C@H](C)[C@@H](O)[C@](C)(O)[C@@H](CC)OC(=O)[C@@H]2C)C[C@@]1(C)OC [tulathromycin] |  |  | ≥ 512 µg/mL |
| CCN1CCN(c2cc3c(cc2F)c(=O)c(C(=O)O)cn3C2CC2)CC1 [enrofloxacin, Enrofloxacin] | > 64 µg/mL |  |  |
| CC[C@H]1OC(=O)C[C@@H](O)[C@H](C)[C@@H](O[C@@H]2O[C@H](C)[C@@H](O)[C@H](N(C)C)[C@H]2O)[C@@H](CCN2C[C@H](C)C[C@H](C)C2)C[C@@H](C)C(=O)/C=C/C(C)=C/[C@@H]1CO[C@@H]1O[C@H](C)[C@@H](O)[C@@H](OC)[C@H]1OC [tilmicosin] | 2 to 4 µg/mL |  | ≥ 512 µg/mL |

The next lines start with results.

| MIC [2, 3] | MIC [2] | Structure (SMILES) | MIC [1] |
| --- | --- | --- | --- |
| 2 to 4 µg/mL |  | CS(=O)(=O)c1ccc([C@@H](O)[C@@H](CF)NC(=O)C(Cl)Cl)cc1 [florfenicol] |  |
| > 64 µg/mL |  | CC[C@H]1OC(=O)C[C@@H](O)[C@H](C)[C@@H](O[C@@H]2O[C@H](C)[C@@H](O[C@H]3C[C@@](C)(O)[C@@H](O)[C@H](C)O3)[C@H](N(C)C)[C@H]2O)[C@@H](CC=O)C[C@@H](C)C(=O)/C=C/C(C)=C/[C@@H]1CO[C@@H]1O[C@H](C)[C@@H](O)[C@@H](OC)[C@H]1OC [tylosin, tylosin tartrate] | ≥ 512 µg/mL |
|  | more than 64 mg/L | CO/N=C(\C(=O)N[C@@H]1C(=O)N2C(C(=O)[O-])=C(C[n+]3cccc4c3CCCC4)CS[C@H]12)c1csc(N)n1 [cefquinome, Cefquinome] |  |
